What was measured:
foxtail, giant = assay: Test A postemergence; assay type: in vivo, Setaria faberii
Method in brief: (§1)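 Scoring was visual, on a scale where 100 means complete control and 0 means no effect, comparing treated with untreated plants around 10 days post-application. Compounds in surfactant-containing non-phytotoxic solvent were sprayed onto soil preemergence or onto one- to two-leaf seedlings (2–10 cm) postemergence.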

morningglory [1] = assay: Test A postemergence; assay type: in vivo, Ipomoea spp.
Method in brief: as §1

ducksalad = assay: Test B flood; assay type: in vivo, Heteranthera limosa; conditions: 250 g ai/ha, visual rating on 0 to 100 scale (0 no effect, 100 complete control), 13 to 15 days
Method in brief: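 Greenhouse assay lasting 13 to 15 days. Treatment was into water flooding pots 3 cm deep, at the 2-leaf stage, with that level sustained afterwards. Scores compare treated with control plants visually, 100 denoting complete control and 0 no effect; a dash marks no test result.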

blackgrass = assay: Test C preemergence; assay type: in vivo, Alopecurus myosuroides
Method in brief: (§2)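 Visual control ratings on a 0–100 scale (100 = complete control) made against untreated controls after 13 to 15 days in greenhouse. Compounds applied in surfactant-containing solvent mixture, either preemergence to loam/sand-sown seeds or postemergence to 1- to 4-leaf plants (2–18 cm) in peat medium.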

crabgrass, large = assay: Test C preemergence; assay type: in vivo, Digitaria sanguinalis
Method in brief: as §2

johnsongrass = assay: Test C preemergence; assay type: in vivo, Sorghum halepense
Method in brief: as §2

morningglory [2] = assay: Test C preemergence; assay type: in vivo, Ipomoea coccinea
From the text: (§3) Seeds of plant species selected from blackgrass (Alopecurus myosuroides), ryegrass, Italian (Italian ryegrass, Lolium multiflorum), wheat (winter wheat, Triticum aestivum), galium (catchweed bedstraw, Galium aparine), corn (Zea mays), crabgrass, large (large crabgrass, Digitaria sanguinalis), foxtail, giant (giant foxtail, Setaria faberii), johnsongrass (Sorghum halepense), lambsquarters (Chenopodium album), morningglory (Ipomoea coccinea), nutsedge, yellow (yellow nutsedge, Cyperus esculentus), pigweed (redroot pigweed, Amaranthus retroflexus), ragweed (common ragweed, Ambrosia elation), soybean (Glycine max), barnyardgrass (Echinochloa crus-galli), oilseed rape (Brassica napus), waterhemp (common waterhemp, Amaranthus rudis), oat, wild (wild oat, Avena fatua), kochia (Kochia scoparia), Surinam grass (Brachiaria decumbens), foxtail, green (green foxtail, Setaria viridis), goosegrass (Eleusine indica), bromegrass, downy (downy bromegrass, Bromus tectorum), nightshade (eastern black nightshade, Solanum ptycanthum), cocklebur (common cocklebur, Xanthium strumarium), cupgrass, woolly (woolly cupgrass, Eriochloa villosa), bermudagrass (Cynodon dactylon), sunflower, (common oilseed sunflower, Helianthus annuus), Russian thistle (Salsola kali), and velvetleaf (Abutilon theophrasti) were planted into a blend of loam soil and sand and treated preemergence with test chemicals formulated in a non-phytotoxic solvent mixture which included a surfactant.
(§4) At the same time, plants selected from these crop and weed species and also chickweed (common chickweed, Stellaria media), canarygrass (littleseed canarygrass, Phalaris minor), and deadnettle (henbit deadnettle, Lamium amplexicaule), were planted in pots containing Redi-Earth® planting medium (Scotts Company, 14111 Scottslawn Road, Marysville, Ohio 43041) comprising spaghnum peat moss, vermiculite, wetting agent and starter nutrients and treated with postemergence applications of test chemicals formulated in the same manner. Plants ranged in height from 2 to 18 cm (1- to 4-leaf stage) for postemergence treatments. Treated plants and controls were maintained in a greenhouse for 13 to 15 days, after which time all species were compared to controls and visually evaluated. Plant response ratings, summarized in Table C, are based on a scale of 0 to 100 where 0 is no effect and 100 is complete control. A dash (-) response means no test result.

oilseed rape = assay: Test C preemergence; assay type: in vivo, Brassica napus
From the text: as §3, §4

[3] = Postemergence, 500 g ai/ha, 0 to 100 scale (0 no effect, 100 complete control)
[4] = postemergence, 125 g ai/ha, about 10 days, visual rating on 0 to 100 scale (0 no effect, 100 complete control)
[5] = preemergence, 31 g ai/ha, visual rating, scale 0 to 100 (0 no effect, 100 complete control), 13 to 15 days
[6] = preemergence, 62 g ai/ha, scale 0 to 100 (0 no effect, 100 complete control), 13 to 15 days
[7] = preemergence, 125 g ai/ha, 13 to 15 days, scale 0 to 100, 0 = no effect, 100 = complete control
[8] = preemergence, 250 g ai/ha, scale 0 to 100, 0 is no effect, 100 is complete control
[9] = Preemergence, 16 g ai/ha, scale 0 to 100
[10] = Preemergence, 4 g ai/ha, scale 0 to 100
[11] = Preemergence, 8 g ai/ha, scale 0 to 100

Row | Structure (SMILES) | Foxtail, Giant plant response rating (foxtail, giant; [3]) | Foxtail, Giant plant response rating (foxtail, giant; [4]) | Morningglory plant response rating (morningglory [1]; [3]) | Morningglory plant response rating (morningglory [1]; [4]) | Plant response rating, Ducksalad (ducksalad) | Blackgrass plant response rating (blackgrass; [5]) | Blackgrass plant response rating (blackgrass; [6]) | Plant response rating, Blackgrass (blackgrass; [7]) | Crabgrass, Large plant response rating (crabgrass, large; [5]) | Crabgrass, Large plant response rating (crabgrass, large; [6]) | Plant response rating, Crabgrass, Large (crabgrass, large; [7]) | Johnsongrass plant response rating (johnsongrass; [5]) | Johnsongrass plant response rating (johnsongrass; [6]) | Plant response rating, Johnsongrass (johnsongrass; [7]) | Morningglory plant response rating (morningglory [2]; [5]) | Morningglory plant response rating (morningglory [2]; [6]) | Plant response rating, Morningglory (morningglory [2]; [7]) | Oilseed Rape plant response rating (oilseed rape; [5]) | Oilseed Rape plant response rating (oilseed rape; [6]) | Plant response rating, Oilseed Rape (oilseed rape; [7]) | further results
1 | O=C(NCC(F)(F)F)c1cc(CCF)n(Cc2ccnc(C(F)(F)F)c2)n1 [Compound 175] | 90 | 80 | 90 | 80 | 100 | 30 | 90 | 90 | 100 | 100 | 100 | 0 | 35 | 70 | 95 | 100 | 100 | 98 | 100 | 100 | Blackgrass plant response rating (blackgrass; [8]): 90; Crabgrass, Large plant response rating (crabgrass, large; [8]): 100; Johnsongrass plant response rating (johnsongrass; [8]): 100; Morningglory plant response rating (morningglory [2]; [8]): 100; Oilseed Rape plant response rating (oilseed rape; [8]): 100
2 | CCNC(=O)c1cc(CCF)n(Cc2ccnc(C(F)(F)F)c2)n1 [Compound 178] | 90 | 70 | 100 | 70 | 95 | 5 | 30 | 85 | 100 | 95 | 100 | 0 | 5 | 25 | 35 | 95 | 100 | 70 | 80 | 98 | Plant response rating, Blackgrass (blackgrass; [9]): 0; Plant response rating, Crabgrass, Large (crabgrass, large; [9]): 30; Plant response rating, Johnsongrass (johnsongrass; [9]): 0; Plant response rating, Morningglory (morningglory [2]; [9]): 15; Plant response rating, Oilseed Rape (oilseed rape; [9]): 50
3 | CCCc1cc(C(=O)NOC(C)C)nn1Cc1cc(C(F)(F)F)nn1C [Compound 203] | 90 | 80 | 90 | – | 95 | 30 | 50 | 85 | 80 | 95 | 100 | 0 | 0 | 40 | 30 | 95 | 85 | 50 | 100 | 100 | Morningglory plant response rating (morningglory [1]; Postemergence, 125 g ai/ha, 0 to 100 scale, 0 no effect, 100 complete control): 50; Blackgrass plant response rating (blackgrass; [8]): 90; Crabgrass, Large plant response rating (crabgrass, large; [8]): 100; Johnsongrass plant response rating (johnsongrass; [8]): 55; Morningglory plant response rating (morningglory [2]; [8]): 100; Oilseed Rape plant response rating (oilseed rape; [8]): 100
4 | CCOc1cc(C(=O)NCC(F)(F)F)nn1Cc1cc(C(F)(F)F)nn1C [Compound 140] | 90 | 80 | 90 | 90 | 95 | 50 | – | – | 98 | – | – | 25 | – | – | 90 | – | – | 95 | – | – | Plant response rating, Blackgrass (blackgrass; [10]): 0; Plant response rating, Blackgrass (blackgrass; [11]): 0; Plant response rating, Blackgrass (blackgrass; [9]): 5; Plant response rating, Crabgrass, Large (crabgrass, large; [10]): 45; Plant response rating, Crabgrass, Large (crabgrass, large; [11]): 55; Plant response rating, Crabgrass, Large (crabgrass, large; [9]): 75; Plant response rating, Johnsongrass (johnsongrass; [10]): 20; Plant response rating, Johnsongrass (johnsongrass; [11]): 5; Plant response rating, Johnsongrass (johnsongrass; [9]): 5; Plant response rating, Morningglory (morningglory [2]; [10]): 5; Plant response rating, Morningglory (morningglory [2]; [11]): 5; Plant response rating, Morningglory (morningglory [2]; [9]): 95; Plant response rating, Oilseed Rape (oilseed rape; [10]): 5; Plant response rating, Oilseed Rape (oilseed rape; [11]): 80; Plant response rating, Oilseed Rape (oilseed rape; [9]): 95

Reference: US20150105252A1, “SUBSTITUTED PYRAZOLES AS HERBICIDES” (E I DU PONT DE NEMOURS AND COMPANY, priority 2013, published 2015)
